Source: patent publication EP1484329A1, “Indole derivatives with apoptosis inducing activity” (Zentaris GmbH, priority 2003, dated 2004)
In brackets after ≈: the same amount, converted by molar mass. Like-named read-outs stand apart in the source and are kept apart here.

Key:
DNA-Topoisomerase II = DNA-Topoisomerase II (Homo sapiens, UniProt P11388); experiment: kDNA decatenation assay for topoisomerase II activity; format: biochemical; settings: tested at 100, 31.6 and 10 µM
Description: In diesem von P. Arimondo (Anti-Cancer Drug Design 2000, 15 (6), 413-421) beschriebenen Assay wird kDNA mit humaner DNA-Topoisomerase II in Abwesenheit oder Gegenwart der Testverbindungen behandelt. Die Testung der erfindungsgemäßen Verbindungen 2, 4 und 5 erfolgte hierbei bei drei unterschiedlichen Konzentrationen (100, 31.6 und 10 µM). Zum Vergleich setzte man eine Positivkontrolle und die Referenzverbindungen m-Amsacrin (m-Amsa), Paclitaxel und Vincristine bei einer jeweiligen Konzentration von 100µM ein.
Zu 1µL vorgelegter Testsubstanz (20fach konzentriert in 100% DMSO) werden 2µL 10x Assay Puffer, 1µL kDNA (200ng), 0.5µL human Topoisomerase II (1 unit) und 15,5µL H2O pipettiert und gemischt.
Die Reaktionsansätze werden in den auf 37°C vorgeheizten Heizblock gestellt und 10min bei 37°C inkubiert. Die Inkubation wird nach Zugabe von 4µL 5x Stop Puffer gestoppt und nachfolgend die Substanz mit CIA extrahiert. Danach werden 20µL des Überstandes auf ein 1 % Agarosegel mit 0,25µg/mL Ethidiumbromid aufgetragen und 1h bei 100V aufgetrennt. Zum Schluss wird das Gel unter UV-Anregung fotografiert (s. Graph 1). Die Quantifizierung der Inhibierung der Decatenation von kDNA erfolgt mit der GeIPro® Analyzer Software (s. Graph 2) [formula] [formula]

A172 = experiment: XTT proliferation assay, A172; format: cell-based, human; settings: Homo sapiens, read-out: XTT Proliferationsassay, EC50 A172
Description: (§1) Die Substanzen 1,2, 4-6 wurden in einem Proliferationstest an etablierten Tumorzelllinien auf ihre anti-proliferative Aktivität hin untersucht (D.A. Scuderio et al. Cancer Res. 1988, 48, 4827-4833). Der verwendete Test bestimmt die zelluläre Dehydrogenase-Aktivität und ermöglicht eine Bestimmung der Zellvitalität und indirekt der Zellzahl. Bei den verwendeten Zelllinien handelt es sich um die humane Cervixkarzinom Zelllinie KB/HeLa (ATCC CCL17), die ovariale Adenokarzinomzelllinie SKOV-3 (ATCC HTB77), die humane Glioblastom Zelllinie SF-268 (NCI 503138) und die Lungenkarzinom Zelllinie NCI-H460 (NCI 503473). Des weiteren wurde zur Untersuchung der Zellzyklus-spezifischen Wirkung der Substanz ein RKOp27 Zellsystem verwendet (M. Schmidt et al. Oncogene19(20):2423-9, 2000). Bei RKO handelt es sich um eine humane Kolonkarzinomlinie, in der der Zellzyklusinhibitor p27 ^kip1 mittels des Ecdyson Expressionssystems induziert zur Expression gebracht und zu einem Zellzyklusarrest spezifisch in G2 geführt werden kann. Eine unspezifisch wirkende Substanz hemmt die Proliferation unabhängig davon, ob die RKO Zelle in G1 oder G2 arretiert ist oder nicht. Zellzyklus-spezifische Substanzen wie beispielsweise Tubulininhibitoren sind hingegen nur dann zytotoxisch, wenn Zellen nicht arretiert sind und der Zellzyklus durchlaufen wird. In Tabelle 1 ist die zytotoxische bzw. wachstumshemmende Aktivität der beschriebenen Verbindungen mit / ohne Expression von p27^kip1gezeigt. Die getesteten Verbindungen zeigten im induzierten Zustand von p27^kiP1 keine zytotoxische Aktivität. Die Ergebnisse zeigen eine sehr potente Hemmung der Proliferation ausgewählter Tumorzelllinien durch die genannten Substanzen. Tabelle 1:
(§2) Zur weiteren Charakterisierung wurden die Substanzen 1-6 an einem Panel von 7 humanen Tumorzelllinien auf ihre anti-proliferative Wirkung hin untersucht. Bei den untersuchten Zelllinien handelt es sich um die humanen Glioma Zelllinien A172 (ATCC CRL-1620) und U118 (ATCC HTB-15), die humane Lungenkarzinom Zelllinie A549, das humane epidermoide Karzinom A431 (ATCC CRL-2592), die humanen Prostatakarzinom Zelllinien DU145 (ATCC HTB-81) und PC3 (ATCC CRL-1435) und die humane Kolon Adenokarzinomzelllinie HT29 (ATCC HTB-38). Es handelt sich hierbei um sehr gut charakterisierte, etablierte Zelllinien, die von ATCC, ECACC bzw. NCI erhalten und in Kultur genommen wurden. Die in Tab. […]

RKOp27 = experiment: XTT proliferation assay, RKOp27 cell system with / without induced p27kip1 expression; format: cell-based; settings: Homo sapiens
Description: as §1, with “Substanzen.” for “Substanzen. Tabelle 1:”

P388ADR = experiment: XTT proliferation assay, P388ADR (doxorubicin-resistant); format: cell-based, murine
Description: as §1
Zur weiteren Charakterisierung wurden die Substanzen 1,2,4-6 gegenüber multi drug resistenten Zelllinien im Vergleich zu den nicht-resistenten Wildtypzelllinien untersucht.
Bei den untersuchten Zelllinien handelt es sich um die murine L1210, die akute myeloische Leukaemie Zelllinie LT12 und um die resistenten Linien L1210/mdr und LT12/mdr. Außerdem wurden die murine P388 Zelllinie (methyl-cholanthreneinduced lymphoid neoplasm) sowie die Doxorubicin-resistente P388 als Testsysteme herangezogen.

PC3 = experiment: XTT proliferation assay, PC3; format: cell-based, human; settings: Homo sapiens, read-out: XTT Proliferationsassay, EC50 PC3
Description: as §1, §2

A431 = experiment: XTT proliferation assay, A431; format: cell-based, human; settings: Homo sapiens, read-out: XTT Proliferationsassay, EC50 A431
Description: as §1, §2

U118MG = experiment: XTT proliferation assay, U118MG; format: cell-based; settings: Homo sapiens, U-118-MG; read-out: XTT Proliferationsassay, EC50 U118MG
Description: as §1, §2

A549 = experiment: XTT proliferation assay, A549; format: cell-based, human; settings: Homo sapiens, read-out: XTT Proliferationsassay, EC50 A549
Description: as §1, §2

[1] = RKOP27, without expression of p27kip1, read-out: XTT Proliferationsassay, EC50 RKOP27
[2] = RKOP27 ind., p27kip1 expression induced (cells arrested), read-out: XTT Proliferationsassay, EC50 RKOP27 ind.
[3] = Mus musculus, P388/ADR; read-out: XTT Proliferationsassay, EC50 P388ADR

Chain of DNA-Topoisomerase II (P11388 whole entry): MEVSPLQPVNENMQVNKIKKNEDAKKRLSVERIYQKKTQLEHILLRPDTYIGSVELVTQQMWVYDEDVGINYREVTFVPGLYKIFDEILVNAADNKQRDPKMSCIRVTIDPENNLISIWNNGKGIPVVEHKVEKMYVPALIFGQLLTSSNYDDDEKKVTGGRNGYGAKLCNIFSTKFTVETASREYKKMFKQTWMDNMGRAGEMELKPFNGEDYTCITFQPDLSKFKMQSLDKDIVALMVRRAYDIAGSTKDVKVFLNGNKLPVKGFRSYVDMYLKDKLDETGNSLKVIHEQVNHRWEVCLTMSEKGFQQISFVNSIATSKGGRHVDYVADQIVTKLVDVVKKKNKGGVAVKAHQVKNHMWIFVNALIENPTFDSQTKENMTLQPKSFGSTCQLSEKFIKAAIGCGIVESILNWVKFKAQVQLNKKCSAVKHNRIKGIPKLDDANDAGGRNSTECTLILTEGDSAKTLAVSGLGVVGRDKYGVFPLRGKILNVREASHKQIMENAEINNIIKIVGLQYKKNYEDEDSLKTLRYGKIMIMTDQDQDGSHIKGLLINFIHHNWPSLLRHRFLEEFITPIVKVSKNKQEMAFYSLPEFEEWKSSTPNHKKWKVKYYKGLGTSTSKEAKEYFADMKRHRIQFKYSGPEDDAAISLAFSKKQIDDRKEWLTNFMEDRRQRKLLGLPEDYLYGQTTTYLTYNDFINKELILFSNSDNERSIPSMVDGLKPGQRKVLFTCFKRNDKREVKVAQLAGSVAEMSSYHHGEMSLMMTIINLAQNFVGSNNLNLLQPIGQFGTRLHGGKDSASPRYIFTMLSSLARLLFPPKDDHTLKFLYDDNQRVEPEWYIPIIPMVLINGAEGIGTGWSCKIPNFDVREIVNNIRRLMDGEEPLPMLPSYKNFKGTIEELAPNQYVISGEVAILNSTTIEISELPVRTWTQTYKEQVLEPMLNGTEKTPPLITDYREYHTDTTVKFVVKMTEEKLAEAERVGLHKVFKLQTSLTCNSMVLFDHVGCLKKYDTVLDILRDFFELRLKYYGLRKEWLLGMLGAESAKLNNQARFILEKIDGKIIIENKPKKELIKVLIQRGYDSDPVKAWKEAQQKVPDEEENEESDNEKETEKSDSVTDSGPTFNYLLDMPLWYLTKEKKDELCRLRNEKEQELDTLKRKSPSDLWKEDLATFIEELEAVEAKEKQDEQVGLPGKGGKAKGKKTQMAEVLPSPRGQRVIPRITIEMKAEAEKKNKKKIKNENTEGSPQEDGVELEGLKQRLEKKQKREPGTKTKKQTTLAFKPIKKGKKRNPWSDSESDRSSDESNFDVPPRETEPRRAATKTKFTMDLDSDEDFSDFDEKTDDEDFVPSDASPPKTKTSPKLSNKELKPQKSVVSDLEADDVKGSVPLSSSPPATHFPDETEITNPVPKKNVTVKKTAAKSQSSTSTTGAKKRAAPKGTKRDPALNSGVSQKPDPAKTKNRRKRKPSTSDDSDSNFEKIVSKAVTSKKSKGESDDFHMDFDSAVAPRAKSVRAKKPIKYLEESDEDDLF

| SMILES | Hemmung der Topoisomerase II (kDNA Assay) (DNA-Topoisomerase II) | EC50 (A172; A 172) [µg/mL] | EC50 (RKOp27; [1]) [µg/mL] | EC50 (RKOp27; [2]) [µg/mL] | EC50 (P388ADR; Mus musculus, P388/ADR, read-out: XTT Proliferationsassay, EC50 P388ADR) [µg/mL] | EC50 (PC3; PC-3) [µg/mL] | EC50 (A431; A-431) [µg/mL] | EC50 (U118MG) [µg/mL] | EC50 (A549; A549) [µg/mL] | EC50 (A172; A 172, A172) [µg/mL] | EC50 (P388ADR; [3]) [µg/mL] | EC50 (PC3; PC-3, PC3) [µg/mL] | EC50 (A431; A-431, A431) [µg/mL] | EC50 (A549; A549, A549) [µg/mL] |
| --- | --- | --- | --- | --- | --- | --- | --- | --- | --- | --- | --- | --- | --- | --- |
| O=C(Nc1ccc2ncccc2c1)C(=O)c1cn(Cc2ccc(Cl)cc2)c2ccccc12 [Verbindung 2, 2-[1-(4-Chlor-benzyl)-1 H-indol-3-yl]-2-oxo-N-chinolin-6-yl-acetamid] | signifikante Hemmung der Topoisomerase II | 0.024 (≈ 0.0546 µM) | 0.047 (≈ 0.107 µM) | > 3.16 | 0.056 (≈ 0.127 µM) | 0.016 (≈ 0.0364 µM) | 0.014 (≈ 0.0318 µM) | 0.022 (≈ 0.05 µM) | 0.05 (≈ 0.114 µM) |  |  |  |  |  |
| O=C(Nc1ccc2ncccc2c1)C(=S)c1cn(Cc2ccc(Cl)cc2)c2ccccc12 [Verbindung 4, 2-[1-(4-Chlorbenzyl)-1 H-indol-3-yl]-N-chinolin-6-yl-2-thioxoacetamid] | signifikante Hemmung der Topoisomerase II |  | 0.053 (≈ 0.116 µM) | > 3.16 |  |  |  | 0.03 (≈ 0.0658 µM) |  | 0.043 (≈ 0.0943 µM) | 0.051 (≈ 0.112 µM) | 0.027 (≈ 0.0592 µM) | 0.016 (≈ 0.0351 µM) | 0.041 (≈ 0.0899 µM) |
| O=C(Nc1cnc2nccnc2c1)C(=O)c1cn(Cc2ccc(Cl)cc2)c2ccccc12 [Verbindung 5, 2-[1-(4-Chlor-benzyl)-1H-indol-3-yl]-2-oxo-N-pyrido[2,3-b]pyrazin-7-yl-acetamid] | Inhibierung der Topoisomerase II |  | 0.065 (≈ 0.147 µM) | > 3.16 |  |  |  | 0.013 (≈ 0.0294 µM) |  | 0.019 (≈ 0.043 µM) | 0.019 (≈ 0.043 µM) | 0.03 (≈ 0.0679 µM) | 0.011 (≈ 0.0249 µM) | 0.017 (≈ 0.0385 µM) |
